According to patent US11117900B2 (Vertex Pharmaceuticals Incorporated, priority 2012, dated 2021):

system: HCT116 colorectal cancer cells; test: Cisplatin sensitization assay (96 h MTS cell viability); format: cell-based; details: Cisplatin sensitization value;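 further: compound concentration needed to lower the IC50 of Cisplatin alone by a set fold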
How it was run: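 The MTS viability read, after 1 h with reagent, followed 96 h of co-treatment at 37° C. in 5% CO2. Both compound and cisplatin were titrated 2-fold from a 10 μM top final concentration in a complete concentration matrix on HCT116 cells. Scores +++/++/+ reflect cisplatin sensitization value ranges.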

Row | Compound | Cisplatin Sensitization Assay
1 | CN1CCC(Oc2ccncc2NC(=O)c2c(N)nn3cc(F)cnc23)CC1 [I-O-12, 2-amino-6-fluoro-N-(4-((1-methylpiperidin-4-yl)oxy)pyridin-3-yl)pyrazolo[1,5-a]pyrimidine-3-carboxamide] | +++ (Compounds with a Cisplatin sensitization value of <0.02 μM are marked with “+++.”)
2 | COC(=O)[C@H]1CC[C@H](Oc2ccncc2NC(=O)c2c(N)nn3cc(F)cnc23)CC1 [I-O-13, (1r,4r)-methyl 4-((3-(2-amino-6-fluoropyrazolo[1,5-a]pyrimidine-3-carboxamido)pyridin-4-yl)oxy)cyclohexanecarboxylate] | +++ (Compounds with a Cisplatin sensitization value of <0.02 μM are marked with “+++.”)
3 | CCOc1ccncc1NC(=O)c1c(N)nn2cc(F)cnc12 [I-O-14, 2-amino-N-(4-ethoxypyridin-3-yl)-6-fluoropyrazolo[1,5-a]pyrimidine-3-carboxamide] | +++ (Compounds with a Cisplatin sensitization value of <0.02 μM are marked with “+++.”)
4 | Nc1nn2cc(F)cnc2c1C(=O)Nc1cnccc1O[C@H]1Cc2nccn2C1 [I-O-16, (S)-2-amino-N-(4-((6,7-dihydro-5H-pyrrolo[1,2-a]imidazol-6-yl)oxy)pyridin-3-yl)-6-fluoropyrazolo[1,5-a]pyrimidine-3-carboxamide] | +++ (Compounds with a Cisplatin sensitization value of <0.02 μM are marked with “+++.”)
5 | CN(C)C(=O)[C@H]1CC[C@@H](Oc2ccncc2NC(=O)c2c(N)nn3cc(F)cnc23)CC1 [I-O-17, 2-amino-N-(4-(((1s,4s)-4-(dimethylcarbamoyl)cyclohexyl)oxy)pyridin-3-yl)-6-fluoropyrazolo[1,5-a]pyrimidine-3-carboxamide] | +++ (Compounds with a Cisplatin sensitization value of <0.02 μM are marked with “+++.”)
6 | CN1CCN(C(=O)[C@H]2CC[C@@H](Oc3ccncc3NC(=O)c3c(N)nn4cc(F)cnc34)CC2)CC1 [I-O-19, 2-amino-6-fluoro-N-(4-(((1s,4s)-4-(4-methylpiperazine-1-carbonyl)cyclohexyl)oxy)pyridin-3-yl)pyrazolo[1,5-a]pyrimidine-3-carboxamide] | +++ (Compounds with a Cisplatin sensitization value of <0.02 μM are marked with “+++.”)
7 | CCC(C#N)c1cnc2c(C(=O)Nc3cnccc3OC)c(N)nn2c1 (stereo not drawn) [I-O-20, 2-amino-6-(1-cyanopropyl)-N-(4-methoxypyridin-3-yl)pyrazolo[1,5-a]pyrimidine-3-carboxamide] | ++ (Compounds with a Cisplatin sensitization value >0.02 μM but <0.2 μM are marked with “++.”)
8 | COc1ccncc1NC(=O)c1c(N)nn2cc(C(C)C#N)cnc12 (stereo not drawn) [I-O-21, 2-amino-6-(1-cyanoethyl)-N-(4-methoxypyridin-3-yl)pyrazolo[1,5-a]pyrimidine-3-carboxamide] | ++ (Compounds with a Cisplatin sensitization value >0.02 μM but <0.2 μM are marked with “++.”)
9 | CN1CCC(Oc2ccncc2NC(=O)c2c(N)nn3cc(CC#N)cnc23)CC1 [I-O-23, 2-amino-6-(cyanomethyl)-N-(4-((1-methylpiperidin-4-yl)oxy)pyridin-3-yl)pyrazolo[1,5-a]pyrimidine-3-carboxamide] | +++ (Compounds with a Cisplatin sensitization value of <0.02 μM are marked with “+++.”)
10 | CN(C)CCOc1ccncc1NC(=O)c1c(N)nn2cc(CC#N)cnc12 [I-O-24, 2-amino-6-(cyanomethyl)-N-(4-(2-(dimethylamino)ethoxy)pyridin-3-yl)pyrazolo[1,5-a]pyrimidine-3-carboxamide] | ++ (Compounds with a Cisplatin sensitization value >0.02 μM but <0.2 μM are marked with “++.”)
11 | N#CCc1cnc2c(C(=O)Nc3cnccc3Oc3ccccc3)c(N)nn2c1 [I-O-25, 2-amino-6-(cyanomethyl)-N-(4-phenoxypyridin-3-yl)pyrazolo[1,5-a]pyrimidine-3-carboxamide] | +++ (Compounds with a Cisplatin sensitization value of <0.02 μM are marked with “+++.”)
12 | COc1ccncc1NC(=O)c1c(N)nn2cc(CC#N)cnc12 [I-O-26, 2-amino-6-(cyanomethyl)-N-(4-methoxypyridin-3-yl)pyrazolo[1,5-a]pyrimidine-3-carboxamide] | ++ (Compounds with a Cisplatin sensitization value >0.02 μM but <0.2 μM are marked with “++.”)
13 | COc1cc(Cl)ncc1NC(=O)c1c(N)nn2cc(CC#N)cnc12 [I-O-27, 2-amino-N-(6-chloro-4-methoxypyridin-3-yl)-6-(cyanomethyl)pyrazolo[1,5-a]pyrimidine-3-carboxamide] | ++ (Compounds with a Cisplatin sensitization value >0.02 μM but <0.2 μM are marked with “++.”)
14 | CCOc1ccncc1NC(=O)c1c(N)nn2cc(CC#N)cnc12 [I-O-28, 2-amino-6-(cyanomethyl)-N-(4-ethoxypyridin-3-yl)pyrazolo[1,5-a]pyrimidine-3-carboxamide] | +++ (Compounds with a Cisplatin sensitization value of <0.02 μM are marked with “+++.”)
15 | COCCOc1ccncc1NC(=O)c1c(N)nn2cc(CC#N)cnc12 [I-O-29, 2-amino-6-(cyanomethyl)-N-(4-(2-methoxyethoxy)pyridin-3-yl)pyrazolo[1,5-a]pyrimidine-3-carboxamide] | +++ (Compounds with a Cisplatin sensitization value of <0.02 μM are marked with “+++.”)
16 | N#CCc1cnc2c(C(=O)Nc3cnccc3OC3CCOCC3)c(N)nn2c1 [I-O-30, 2-amino-6-(cyanomethyl)-N-(4-((tetrahydro-2H-pyran-4-yl)oxy)pyridin-3-yl)pyrazolo[1,5-a]pyrimidine-3-carboxamide] | +++ (Compounds with a Cisplatin sensitization value of <0.02 μM are marked with “+++.”)
17 | N#CCc1cnc2c(C(=O)Nc3cnccc3O[C@@H]3CCOC3)c(N)nn2c1 [I-O-31, (R)-2-amino-6-(cyanomethyl)-N-(4-((tetrahydrofuran-3-yl)oxy)pyridin-3-yl)pyrazolo[1,5-a]pyrimidine-3-carboxamide] | +++ (Compounds with a Cisplatin sensitization value of <0.02 μM are marked with “+++.”)
18 | N#CCc1cnc2c(C(=O)Nc3cnccc3OCC3CC3)c(N)nn2c1 [I-O-32, 2-amino-6-(cyanomethyl)-N-(4-(cyclopropylmethoxy)pyridin-3-yl)pyrazolo[1,5-a]pyrimidine-3-carboxamide] | +++ (Compounds with a Cisplatin sensitization value of <0.02 μM are marked with “+++.”)
19 | N#CCc1cnc2c(C(=O)Nc3cnccc3OCCO)c(N)nn2c1 [I-O-33, 2-amino-6-(cyanomethyl)-N-(4-(2-hydroxyethoxy)pyridin-3-yl)pyrazolo[1,5-a]pyrimidine-3-carboxamide] | ++ (Compounds with a Cisplatin sensitization value >0.02 μM but <0.2 μM are marked with “++.”)
20 | N#CCc1cnc2c(C(=O)Nc3cnccc3OCC(F)(F)F)c(N)nn2c1 [I-O-34, 2-amino-6-(cyanomethyl)-N-(4-(2,2,2-trifluoroethoxy)pyridin-3-yl)pyrazolo[1,5-a]pyrimidine-3-carboxamide] | ++ (Compounds with a Cisplatin sensitization value >0.02 μM but <0.2 μM are marked with “++.”)
21 | CC(C)Oc1ccncc1NC(=O)c1c(N)nn2cc(CC#N)cnc12 [I-O-35, 2-amino-6-(cyanomethyl)-N-(4-isopropoxypyridin-3-yl)pyrazolo[1,5-a]pyrimidine-3-carboxamide] | +++ (Compounds with a Cisplatin sensitization value of <0.02 μM are marked with “+++.”)
